One compound from US20170319611A1, “METHODS AND COMPOSITIONS COMPRISING AKT INHIBITORS AND/OR PHOSPHOLIPASE D INHIBITORS” (Vanderbilt University, priority 2012, published 2017) can be followed below.

The target of assay [1] is T1, PLD2-Akt interaction (Homo sapiens, UniProt P31749).
T1 construct: 6xHis (N); made in house; host or cells: Sf21 insect cells (baculovirus)
The experiment in a line: In vitro protein-protein interaction assay, purified PLD2 and Akt. The assay is classed as binding. Conditions: purified proteins, 10 μM inhibitor in reaction mixture. Here is the method: 25 nM PLD2-PtS or PtS tag were incubated with 50 nM 6×His-Aktl for 2 h in 50 mM Tris pH 8.0, 0.01% Nonidet P-40, 150 mM NaCl, 0.5 mM EDTA, and 50 mg/mL avidin. Where indicated, 10 μM inhibitor was included in the reaction mixture. PtS-tagged proteins were captured by incubation with strep-tactin resin for 2 h.
Although proteins may co-IP from cell lysate, determining whether proteins form a direct interaction requires binding experiments with purified proteins. As described herein, recombinant Akt and PLD2 was then expressed and purified from Sf21 insect cells (FIG. 8C). […] Numbers indicate molecular weights in kilodaltons. […] Since PLD2 and Akt appear to interact directly, the PLD inhibitors were evaluated to determine whether they disrupted the protein-protein interaction as a potential mechanism by which PLD2 regulates activation of Akt in cells. As described herein, purified PLD2 and Akt were incubated in the presence of EVJ, JWJ, or the allosteric pan-Akt inhibitor, MK2206 (Hirai, H. et al., (2010) Mol. Cancer Ther. 9, 1956-1967) and proteins captured using affinity resin. […] Referring to FIG. 9B, the same procedure was used as in 9A, except 10 μM EVJ, JWJ, or Akt inhibitor MK2206 was included in the reaction mixture.

In assay [2] the test system is Akt. The experiment in a line: Akt membrane recruitment (membrane isolation), U87MG cells. The assay is classed as cell-based, human. Conditions: overnight 5 μM JWJ. The protocol: U87MG cells were seeded in 150 mm tissue culture plates at 2.6×10^6 cells/plate (4 plates per condition) and allowed to adhere overnight. The following day, cells were washed and media replaced with DMEM+indicated inhibitor or vehicle and cells were treated for up to 12 h. Cells were washed twice in 1×PBS then scraped in homogenization buffer (20 mM HEPES pH 7.4, 1 mM EDTA, 250 mM sucrose). Cells were pelleted by centrifugation at 1,000×g for 4 minutes at 4° C. […] Lysate was collected dropwise then centrifuged at 2,000×g for 10 min to pellet unbroken cells, nuclei, and heavy debris. The supernatant was subsequently centrifuged at 100,000×g for 60 min. The supernatant was saved as the cytosolic fraction and the 100,000×g pellet was washed once by resuspension in lysis buffer then centrifuged again under the same conditions.
2.5%, 10%, 17.5%, 25%, and 30% iodixanol solutions were prepared by mixing the appropriate ratios of 50% iodixanol with homogenization buffer. […]
In order to understand the mechanism by which PtdOH regulates Akt activation, it was first determined whether PtdOH and PIP3 share a binding site on Akt. […] Akt binding to PtdOH and PIP3 was then assessed using a protein-lipid overlay assay. […] Bound Akt was determined using an Akt specific antibody. […] GST-Akt PH domain fusion proteins were purified from E. coli and lipid binding was again assessed using a protein-lipid overlay.

Assay [3] concerns AMPK. The experiment in a line: AMPK activation immunoblot, U87MG cells. The assay is classed as cell-based, human. The protocol: Another well-known regulator of autophagy is the adenosine monophosphate-activated protein kinase (AMPK). Changes in intracellular energy balance or metabolic stress are known to activate AMPK (Hardie, D. G. (2007) Nat. Rev. Mol. Cell Bio. 8, 774-785). AMPK serves as a metabolic checkpoint, acting to restore ATP levels through regulation of metabolic enzymes and inhibition of pro-growth anabolic pathways (Hardie, D. G. (2007) Nat. Rev. Mol. Cell Bio. 8, 774-785). […] U87MG cells were treated for 24 hours with […] before lysis and immunoblotting. AMPK activation was measured by assessing phosphorylation at threonine 172 and also by measuring activation of acetyl coenzyme A carboxylase (ACC) at serine 79.
Another AMPK substrate and component of the autophagasome initiation complex is Unc-51-like kinase 1 (ULK1). Several studies (Egan, D. F. et al., (2011) Science 331, 456-461; Kim, J. et al., (2011) Nature Cell Bio. 13, 132-141) have recently identified multiple AMPK sites on ULK1 that function to enhance initiation of autophagy. […] To determine whether the induction of autophagy through AMPK activation requires Akt, Aktl was silenced and then evaluated for effects of PLD inhibition on AMPK and ULK1 phosphorylation. Aktl was chosen to silence since Aktl phosphorylation was decreased following PLD inhibition in U87MG cells. […] U87MG cells were transfected with Aktl siRNA for 72 hours prior to cell lysis. Cells were treated with […] JWJ 24 hours prior to cell lysis.

[4] abbreviates: 24 hours, 10 mM EVJ or 5 mM JWJ.

T1 sequence (P31749 whole entry): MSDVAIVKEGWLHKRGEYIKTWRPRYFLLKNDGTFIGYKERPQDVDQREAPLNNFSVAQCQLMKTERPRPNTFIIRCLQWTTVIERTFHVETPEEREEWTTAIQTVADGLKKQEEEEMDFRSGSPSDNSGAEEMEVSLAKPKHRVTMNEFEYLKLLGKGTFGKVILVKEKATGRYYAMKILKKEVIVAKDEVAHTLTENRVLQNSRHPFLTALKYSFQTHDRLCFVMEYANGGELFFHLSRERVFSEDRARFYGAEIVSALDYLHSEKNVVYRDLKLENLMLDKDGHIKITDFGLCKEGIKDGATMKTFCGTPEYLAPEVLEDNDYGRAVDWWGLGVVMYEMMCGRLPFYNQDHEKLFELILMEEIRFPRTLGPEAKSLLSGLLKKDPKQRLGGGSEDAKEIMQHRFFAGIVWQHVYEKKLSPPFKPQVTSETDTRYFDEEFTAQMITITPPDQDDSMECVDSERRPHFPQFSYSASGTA

`O=C(NCCN1CCC2(CC1)C(=O)NCN2c1cccc(F)c1)c1ccc2ccccc2c1` [No. 1, N-(2-(1-(3-fluorophenyl)-4-oxo-1,3,8-triazaspiro[4.5]decan-8-yl)ethyl)-2-naphthamide]: the PLD2-Akt interaction result in assay [1] is “detected even in the presence of PLD inhibitors”. Further, the “membrane recruitment of Akt” value in assay [2] is listed as “diminished”. In assay [3] (setting [4]), the “AMPK activation (phosphorylation of threonine 172)” value is “observed to increase” and the “phosphorylation of acetyl-coA carboxylase (serine 79)” value was “increased phosphorylation of acetyl-coA carboxylase”. The “AMPK or ULK1 phosphorylation when Aktl is silenced” value in assay [3] (Aktl siRNA 72 hours, 5 mM JWJ 24 hours) is on record as “does not appear to increase AMPK or ULK1 phosphorylation more than DMSO control”.
